Results published in US20220257491A1, “Prebiotic Oral Care Compositions and Methods” (Colgate-Palmolive Company, priority 2021, published 2022).
Marks after values point to notes of the source that are not given here.

Columns and labels:
Assay type in all cases: cell-based
P. gingivalis = test: Multi-species biofilm composition: absolute abundance of P. gingivalis; settings: mean±SD n=3
Procedure: (§1) Biofilms are grown vertically on Calcium Deficient Hydroxyapatite (CAD-HA) disks (Hitemco Medical, Old Bethpage, USA) using the Amsterdam Active Adhesion model. Biofilms are allowed to establish during 24 h (37° C., 170 rpm) under micro-aerophilic conditions (6% O2, 7% CO2, 7% H2, 80% N2). After this 24 h, disks are rinsed 3 times a day for 3 minutes (RT, 250 rpm), for 3 consecutive days, by transferring the lid containing the disks to a new 24-well plate containing 2 mL/well of the appropriate substrate solution. As a negative control, PBS (pH 5.7) without substrate supplementation is used. After each rinsing step, disks are shortly dip-rinsed in a new 24-well plate containing fresh modified BHI medium (2 mL/well) to remove remaining substrate traces. Subsequently, the lid is transferred to another 24-well plate containing fresh modified BHI medium (2 mL/well), followed by incubation (micro-aerophilic, 37° C., 170 rpm) until the next rinsing step.
(§2) NADM, N-acetyl-D-glucosamine (“NADG”) and D-(+)-mannose are selected to determine their effects on multi-species biofilm composition. […] decrease in absolute numbers in at least four of the pathogenic bacterial species tested in the assay, compared to the control, the results of which are described in Table 1 below. Absolute abundances of bacterial species are shown as mean±SD (n=3) logarithmic values of the genome equivalents per millilitre (log(Geq/mL)).

[1] = system: P. intermedia virulence genes; test: Multi-species biofilm virulence gene expression, SYBR RT-qPCR: P. intermedia; settings: for Fold Change in virulence gene expression: DnaJ / Fold Change in virulence gene expression: DnaK / Fold Change in virulence gene expression: ECF / Fold Change in virulence gene expression: GroES / Fold Change in virulence gene expression: HtpG / Fold Change in virulence gene expression: KpsD / Fold Change in virulence gene expression: adpc / Fold Change in virulence gene expression: clpB / Fold Change in virulence gene expression: inpA / Fold Change in virulence gene expression: phg: relative to control (=1), 2^-ΔΔCt, geometric mean n=3
Procedure: as §1
(§3) The expression of 33 virulence genes from 4 periodontal pathogens is analysed to evaluate the relative virulence of the substrate-treated biofilms. For all three substrates, virulence gene expression is determined relatively to the control, and these values are also compared between substrates when this is relevant (Tables 5a-5d).

S. sanguinis = test: Multi-species biofilm composition: absolute abundance of S. sanguinis; settings: mean±SD n=3
Procedure: as §1, §2

S. mutans = test: Multi-species biofilm composition: absolute abundance of S. mutans; settings: for Absolute abundance S. mutans: mean±SD n=3
Procedure: as §1
(§4) NADM, N-acetyl-D-glucosamine (“NADG”) and D-(+)-mannose are selected to determine their effects on multi-species biofilm composition. Repeated rinsing of the biofilms with the substrates at a concentration of 1M results in a significant decrease in absolute numbers in at least four of the pathogenic bacterial species tested in the assay, compared to the control, the results of which are described in Table 1 below. Absolute abundances of bacterial species are shown as mean±SD (n=3) logarithmic values of the genome equivalents per millilitre (log(Geq/mL)).

S. gordonii = test: Multi-species biofilm composition: absolute abundance of S. gordonii; settings: mean±SD n=3
Procedure: as §1, §4

S. oralis = test: Multi-species biofilm composition: absolute abundance of S. oralis; settings: for Absolute abundance S. oralis: mean±SD n=3
Procedure: as §1, §2

[2] = system: A. actinomycetemcomitans virulence genes; test: Multi-species biofilm virulence gene expression, SYBR RT-qPCR: A. actinomycetemcomitans; settings: for Fold Change in virulence gene expression: aae / Fold Change in virulence gene expression: apaH / Fold Change in virulence gene expression: cdtB / Fold Change in virulence gene expression: emaA / Fold Change in virulence gene expression: flp / Fold Change in virulence gene expression: ltxA / Fold Change in virulence gene expression: omp29 / Fold Change in virulence gene expression: omp100 / Fold Change in virulence gene expression: orf859 / Fold Change in virulence gene expression: pgA / Fold Change in virulence gene expression: vapA / Fold Change in virulence gene expression: vppA: relative to control (=1), 2^-ΔΔCt, geometric mean n=3
Procedure: as §1, §3

F. nucleatum = test: Multi-species biofilm composition: absolute abundance of F. nucleatum; settings: mean±SD n=3
Procedure: as §1, §2

A. naeslundii = test: Multi-species biofilm composition: absolute abundance of A. naeslundii; settings: mean±SD n=3
Procedure: as §1, §4

[3] = system: human oral keratinocytes (HOK-18A); test: Inflammatory mediator gene expression in keratinocytes exposed to substrate-treated biofilms; settings: for Fold change in inflammatory mediator gene expression: IL-1β / Fold change in inflammatory mediator gene expression: IL-6 / Fold change in inflammatory mediator gene expression: IL-8 / Fold change in inflammatory mediator gene expression: MMP-8 / Fold change in inflammatory mediator gene expression: TNF-α: relative to control (=1), geometric mean (95% C.I.) n=3
Procedure: Cultures of immortalized human oral keratinocytes (HOK-18A) are grown. The relative inflammatory potential of the substrate-treated multi-species biofilms is evaluated by analyzing the expression of five inflammatory mediator genes in human oral keratinocytes (HOKs) exposed to the substrate-treated biofilms. […] The IL-8 levels in the cellular supernatant are determined as well. RNA is converted to cDNA and relative expression of inflammatory mediator genes is determined as described above with respect to the cellular housekeeping gene (3-actin.
In HOKs exposed to substrate-treated (substrate concentrations of 1 M) multi-species biofilms, mostly decreases in inflammatory mediator gene expression are observed and measured via SYBR RT-qPCR, the results of which are detailed in Table 6.
All substrates are dissolved in PBS at a concentration of 1 M (upper part) or 1% (w/v) (lower part). Values between 0 and 1 represent relative downregulation, values >1 represent relative upregulation. […] For such values, statistically significant differences between two experimental conditions are marked with ‘#1’ (vs. NADM), ‘#2’ (vs. NADG), ‘#3’ (vs. D-(+)-mannose) (P<0.05).

[4] = biofilm rinsed with substrate 1%
[5] = biofilm rinsed with substrate 1M

CC(=O)N[C@@H]1C(O)O[C@H](CO)[C@@H](O)[C@@H]1O (stereo partly drawn) [NADM, N-acetyl-D-mannosamine]
Absolute abundance Pg (P. gingivalis) (P. gingivalis; substrate 1%(w/v) in PBS): 7.06 ± 0.30 log(Geq/mL)
Absolute abundance Pg (P. gingivalis) (P. gingivalis; substrate 1 M in PBS): 5.42 ± 0.23 log(Geq/mL)
Relative P. intermedia virulence gene expression, downregulation ([1]; substrate 1%(w/v), D-(+)-mannose for 3 genes): 2.5- to 7.7 fold
Fold Change in virulence gene expression: DnaJ ([1]; substrate 1%): 0.19 fold
Fold Change in virulence gene expression: DnaK ([1]; substrate 1%): 0.31 fold
Fold Change in virulence gene expression: ECF ([1]; substrate 1%): 0.13 fold
Fold Change in virulence gene expression: GroES ([1]; substrate 1%): 0.51 fold
Fold Change in virulence gene expression: HtpG ([1]; substrate 1%): 0.21 fold
Fold Change in virulence gene expression: KpsD ([1]; substrate 1%): 0.35 fold
Fold Change in virulence gene expression: adpc ([1]; substrate 1%): 0.21 fold
Fold Change in virulence gene expression: clpB ([1]; substrate 1%): 0.40 fold
Fold Change in virulence gene expression: inpA ([1]; substrate 1%): 0.28 fold
Fold Change in virulence gene expression: phg ([1]; substrate 1%): 0.26 fold
Fold Change in virulence gene expression: DnaJ ([1]; substrate 1M): 0.15 fold
Fold Change in virulence gene expression: DnaK ([1]; substrate 1M): 0.70 fold
Fold Change in virulence gene expression: ECF ([1]; substrate 1M): 0.55 fold
Fold Change in virulence gene expression: GroES ([1]; substrate 1M): 0.45 fold
Fold Change in virulence gene expression: HtpG ([1]; substrate 1M): 0.35 fold
Fold Change in virulence gene expression: KpsD ([1]; substrate 1M): 0.41 fold
Fold Change in virulence gene expression: adpc ([1]; substrate 1M): 0.70 fold
Fold Change in virulence gene expression: clpB ([1]; substrate 1M): 0.40 fold
Fold Change in virulence gene expression: inpA ([1]; substrate 1M): 0.64 fold
Fold Change in virulence gene expression: phg ([1]; substrate 1M): 0.15 fold
Absolute abundance S. sang. (S. sanguinis) (S. sanguinis; substrate 1%(w/v) in PBS): 8.62 ± 0.39 log(Geq/mL)
Absolute abundance S. sang. (S. sanguinis) (S. sanguinis; substrate 1 M in PBS): 9.10 ± 0.29 log(Geq/mL)
Decrease in S. mutans vs control (S. mutans; substrate 1%(w/v)): 0.5 log(Geq/mL)
Absolute abundance S. mutans (S. mutans; substrate 1%(w/v) in PBS): 7.01 ± 0.05 log(Geq/mL)
Change in S. mutans numbers compared to the control (S. mutans; substrate 1 M): −1.2 log(Geq/mL)
Absolute abundance S. mutans (S. mutans; substrate 1 M in PBS): 7.41 ± 0.44 log(Geq/mL)
Absolute abundance S. gord. (S. gordonii) (S. gordonii; substrate 1%(w/v) in PBS): 8.40 ± 0.10 log(Geq/mL)
Absolute abundance S. gord. (S. gordonii) (S. gordonii; substrate 1 M in PBS): 8.94 ± 0.32 log(Geq/mL)
Absolute abundance S. oralis (S. oralis; substrate 1%(w/v) in PBS): 7.49 ± 0.30 log(Geq/mL)
Change in S. oralis numbers compared to the control (S. oralis; substrate 1 M): +2.5 log(Geq/mL)
Difference in S. oralis numbers compared to NADG (S. oralis; substrate 1 M): +1.5 log(Geq/mL)
Absolute abundance S. oralis (S. oralis; substrate 1 M in PBS): 9.46 ± 0.24*^, #2 log(Geq/mL)
Fold Change in virulence gene expression: aae ([2]; substrate 1% (w/v)): 0.92 fold
Fold Change in virulence gene expression: apaH ([2]; substrate 1% (w/v)): 0.81 fold
Fold Change in virulence gene expression: cdtB ([2]; substrate 1% (w/v)): 0.59 fold
Fold Change in virulence gene expression: emaA ([2]; substrate 1% (w/v)): 0.40 fold
Fold Change in virulence gene expression: flp ([2]; substrate 1% (w/v)): 0.35 fold
Fold Change in virulence gene expression: ltxA ([2]; substrate 1% (w/v)): 0.29 fold
Fold Change in virulence gene expression: omp29 ([2]; substrate 1% (w/v)): 0.76 fold
Fold Change in virulence gene expression: omp100 ([2]; substrate 1% (w/v)): 0.42 fold
Fold Change in virulence gene expression: orf859 ([2]; substrate 1% (w/v)): 0.57 fold
Fold Change in virulence gene expression: pgA ([2]; substrate 1% (w/v)): 1.07 fold
Fold Change in virulence gene expression: vapA ([2]; substrate 1% (w/v)): 0.82 fold
Fold Change in virulence gene expression: vppA ([2]; substrate 1% (w/v)): 1.01 fold
A. actinomycetemcomitans gene expression decrease: flp, emaA and omp100 ([2]; substrate 1%(w/v)): 2.4- to 2.9 fold
Fold Change in virulence gene expression: aae ([2]; substrate 1M): 0.27 fold
Fold Change in virulence gene expression: apaH ([2]; substrate 1M): 0.25 fold
Fold Change in virulence gene expression: cdtB ([2]; substrate 1M): 0.31 fold
Fold Change in virulence gene expression: emaA ([2]; substrate 1M): 0.36 fold
Fold Change in virulence gene expression: flp ([2]; substrate 1M): 0.85 fold
Fold Change in virulence gene expression: ltxA ([2]; substrate 1M): 0.01 fold
Fold Change in virulence gene expression: omp29 ([2]; substrate 1M): 0.48 fold
Fold Change in virulence gene expression: omp100 ([2]; substrate 1M): 0.04 fold
Fold Change in virulence gene expression: orf859 ([2]; substrate 1M): 0.11 fold
Fold Change in virulence gene expression: pgA ([2]; substrate 1M): 3.53 fold
Fold Change in virulence gene expression: vapA ([2]; substrate 1M): 0.74 fold
Fold Change in virulence gene expression: vppA ([2]; substrate 1M): 0.81 fold
Absolute abundance Fn (F. nucleatum) (F. nucleatum; substrate 1%(w/v) in PBS): 9.60 ± 0.22 log(Geq/mL)
Absolute abundance Fn (F. nucleatum) (F. nucleatum; substrate 1 M in PBS): 8.14 ± 0.44 log(Geq/mL)
Absolute abundance An (A. naeslundii) (A. naeslundii; substrate 1%(w/v) in PBS): 7.60 ± 0.22 log(Geq/mL)
Absolute abundance An (A. naeslundii) (A. naeslundii; substrate 1 M in PBS): 6.73 ± 0.39 log(Geq/mL)
Fold change in inflammatory mediator gene expression: IL-1β [3, 4]: 0.83 (0.66-1.04) fold
Fold change in inflammatory mediator gene expression: IL-6 [3, 4]: 0.73 (0.48-1.13) fold
Fold change in inflammatory mediator gene expression: IL-8 [3, 4]: 1.32 (1.14-1.53) fold
Fold change in inflammatory mediator gene expression: MMP-8 [3, 4]: 0.62 (0.21-1.84) fold
Fold change in inflammatory mediator gene expression: TNF-α [3, 4]: 0.69 (0.48-1.00) fold
Fold change in inflammatory mediator gene expression: IL-1β [3, 5]: 0.59 (0.30-1.14) fold
Fold change in inflammatory mediator gene expression: IL-6 [3, 5]: 0.86 (0.34-2.18) fold
Fold change in inflammatory mediator gene expression: IL-8 [3, 5]: 0.10 (0.05-0.17)* fold
Fold change in inflammatory mediator gene expression: MMP-8 [3, 5]: 1.66 (0.82-3.35)* fold
Fold change in inflammatory mediator gene expression: TNF-α [3, 5]: 0.73 (0.64-0.83) fold
MMP-8 gene expression increase ([3]; substrate 1 M): 1.7 fold
